Data taken from EP2927685A1, “Suitable hepatocytes for in-vitro hepatitis tests” (Medicyte GmbH, priority 2014, dated 2015).
Where two headings read alike, the source gives them in different places.

What was measured:
[1] = tested on: differentiated hepatocytes; assay: Apoptosis quantification by TUNEL
[2] = tested on: primary human hepatocyte transduced with HPV E6 and E7 genes
[3] = tested on: differentiated hepatocytes; conditions: human, 48 h
[4] = tested on: CYP3A4/5, 2E1, 2B6 and 1A1; assay: Cytochrome P450 inhibition in differentiated hepatocytes; assay type: in vitro ADME, human; conditions: after 30 min of incubation, 200 µM naringenin
CYP450 = conditions: human, hepatocytes, 72 h, 200 µM
CYP1A1 = assay: Cytochrome P450 induction in differentiated hepatocytes (CYP1A1); assay type: in vitro ADME, human; conditions: 50 µM omeprazole, normalized to vehicle-only controls
[5] = tested on: differentiated hepatocytes; assay: Intrahepatic cholestasis: bile secretion by CDFDA staining; assay type: cell-based, human; conditions: 24 hours of exposure, compared to melatonin

With COc1ccc2[nH]cc(CCNC(C)=O)c2c1 [melatonin] the “Percent apoptosis (positive nuclei)” value ([1]; differentiated hepatocytes exposed for 24 hours to TC20 values, TUNEL) was 4%.

With N#CC(=C(/N)Sc1ccccc1N)/C(C#N)=C(\N)Sc1ccccc1N [U0126] the “epithelial phenotype of the cells” value [2] was “stable E-Cadherin positive epithelial phenotype”.

CC(=O)Oc1ccccc1C(=O)O [acetylsalicylic acid] was tested, and the “increase in intracellular lipids compared to control” value [3] was 33-47%.

For aflatoxin B1, the “Percent apoptosis (positive nuclei)” value [1] was 23%.

In the case of O=C1C[C@@H](c2ccc(O)cc2)Oc2cc(O)cc(O)c21 [naringenin], the “inhibition of CYP3A4/5, 2E1, 2B6 and 1A1” value [4] is reported as “drastically inhibited” and the “increase in CYP450 activity compared with vehicle-treated cells” value (CYP450) is reported as 5-7 fold.

In the case of COc1ccc2[nH]c([S+]([O-])Cc3ncc(C)c(OC)c3C)nc2c1 (stereo not drawn) [omeprazole], the “CYP1A1 increased by stimulation” value (CYP1A1) is reported as 10 folds.

With Cc1c(C)c2c(c(C)c1O)CCC(C)(COc1ccc(CC3SC(=O)NC3=O)cc1)O2 (stereo not drawn) [troglitazone] the “bile secretion (measure of intrahepatic cholestasis)” value [5] was “loss of bile secretion function”.

With CN(C)CCCN1c2ccccc2Sc2ccc(Cl)cc21 [chlorpromazine] the “bile secretion (measure of intrahepatic cholestasis)” value [5] was “loss of bile secretion function”.
